What was measured:
Conditions in all cases: incubation time: 72 h
BT-474 [1] = assay: normalised response (% of control), CellTox Green; higher = less cell death (100 = DMSO, 0 = benzethonium chloride kill control)
Outline: (§1)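 Values are normalised signals, each belonging to one concentration of the series. Breast cancer cells (20 µl suspension) were seeded into 384-well plates with compound at 5 concentrations in 10-fold steps over a compound-specific 10,000-fold range and incubated 72 h. Readouts were CellTox Green fluorescence (485/520 nm), then CellTiter-Glo luminescence after 10 min at room temperature, with each plate set to 0.1 % DMSO as 100 and a positive kill control as 0.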

BT-549 [2] = assay: as above
Outline: as §1

CAL-120 [3] = assay: as above
Outline: as §1

CAL-148 [4] = assay: as above
Outline: as §1

CAL-51 [5] = assay: as above
Outline: as §1

CAL-85-1 [6] = assay: as above
Outline: as §1

DU-4475 [7] = assay: as above
Outline: as §1

HCC1143 [8] = assay: as above
Outline: as §1

HCC1599 [9] = assay: as above
Outline: as §1

HCC1937 [10] = assay: as above
Outline: as §1

HDQ-P1 [11] = assay: as above
Outline: as §1

Hs578T [12] = assay: as above
Outline: as §1

MCF-10A [13] = assay: as above
Outline: as §1

MDA-MB-231 [14] = assay: as above
Outline: as §1

MDA-MB-436 [15] = assay: as above
Outline: as §1

MDA-MB-453 [16] = assay: as above
Outline: as §1

MDA-MB-468 [17] = assay: as above
Outline: as §1

MFM-223 [18] = assay: as above
Outline: as §1

BT-474 [19] = assay: normalised response (% of control), CellTiter-Glo; higher = more viable cells (100 = DMSO, 0 = benzethonium chloride kill control)
Outline: as §1

BT-549 [20] = assay: as above
Outline: as §1

CAL-120 [21] = assay: as above
Outline: as §1

CAL-148 [22] = assay: as above
Outline: as §1

CAL-51 [23] = assay: as above
Outline: as §1

CAL-85-1 [24] = assay: as above
Outline: as §1

DU-4475 [25] = assay: as above
Outline: as §1

HCC1143 [26] = assay: as above
Outline: as §1

HCC1599 [27] = assay: as above
Outline: as §1

HCC1937 [28] = assay: as above
Outline: as §1

HDQ-P1 [29] = assay: as above
Outline: as §1

Hs578T [30] = assay: as above
Outline: as §1

MCF-10A [31] = assay: as above
Outline: as §1

MDA-MB-231 [32] = assay: as above
Outline: as §1

MDA-MB-436 [33] = assay: as above
Outline: as §1

MDA-MB-453 [34] = assay: as above
Outline: as §1

MDA-MB-468 [35] = assay: as above
Outline: as §1

MFM-223 [36] = assay: as above
Outline: as §1

SK-BR-3 = assay: as above
Outline: as §1

| SMILES | normalised response (BT-474 [1]) | normalised response (BT-549 [2]) | normalised response (CAL-120 [3]) | normalised response (CAL-148 [4]) | normalised response (CAL-51 [5]) | normalised response (CAL-85-1 [6]) | normalised response (DU-4475 [7]) | normalised response (HCC1143 [8]) | normalised response (HCC1599 [9]) | normalised response (HCC1937 [10]) | normalised response (HDQ-P1 [11]) | normalised response (Hs578T [12]) | normalised response (MCF-10A [13]) | normalised response (MDA-MB-231 [14]) | normalised response (MDA-MB-436 [15]) | normalised response (MDA-MB-453 [16]) | normalised response (MDA-MB-468 [17]) | normalised response (MFM-223 [18]) | normalised response (BT-474 [19]) | normalised response (BT-549 [20]) | normalised response (CAL-120 [21]) | normalised response (CAL-148 [22]) | normalised response (CAL-51 [23]) | normalised response (CAL-85-1 [24]) | normalised response (DU-4475 [25]) | normalised response (HCC1143 [26]) | normalised response (HCC1599 [27]) | normalised response (HCC1937 [28]) | normalised response (HDQ-P1 [29]) | normalised response (Hs578T [30]) | normalised response (MCF-10A [31]) | normalised response (MDA-MB-231 [32]) | normalised response (MDA-MB-436 [33]) | normalised response (MDA-MB-453 [34]) | normalised response (MDA-MB-468 [35]) | normalised response (MFM-223 [36]) | normalised response (SK-BR-3) |
| --- | --- | --- | --- | --- | --- | --- | --- | --- | --- | --- | --- | --- | --- | --- | --- | --- | --- | --- | --- | --- | --- | --- | --- | --- | --- | --- | --- | --- | --- | --- | --- | --- | --- | --- | --- | --- | --- |
| CNC(=O)c1ccc(N2C(=S)N(c3ccc(C#N)c(C(F)(F)F)c3)C(=O)C23CCC3)cc1F [RD162] (100 nM) | 104% | 106% | 104% | 87% | 105% | 101% | 103% | 84.3% | 102% | 107% | 96.8% | 88% | 110% | 113% | 83.4% | 107% | 87.9% | 103% | 94.2% | 97.8% | 103% | 101% | 97.3% | 96.4% | 102% | 101% | 111% | 91.3% | 99.7% | 102% | 116% | 99.7% | 101% | 108% | 108% | 103% | 103% |
| CNC(=O)c1cc(Oc2ccc(NC(=O)Nc3ccc(Cl)c(C(F)(F)F)c3)c(F)c2)ccn1 [Regorafenib] (100 nM) | 98.9% | 109% | 99.8% | 101% | 105% | 108% | 103% | 87.8% | 108% | 99.6% | 101% | 99.4% | 98.1% | 74.6% | 90.9% | 103% | 135% | 88.1% | 99% | 103% | 98.1% | 112% | 97.5% | 99.8% | 100% | 100% | 91.2% | 100% | 98.8% | 108% | 105% | 101% | 106% | 105% | 94.3% | 102% | 105% |
| c1ccc2c(CCNc3ccc(Nc4ccncc4)cc3)c[nH]c2c1 [Serdemetan] (100 nM) | 100% | 103% | 96.9% | 96.1% | 91.4% | 103% | 100% | 104% | 93.7% | 98.8% | 51.9% | 99.5% | 88% | 93.5% | 88.8% | 103% | 83.8% | 93.3% | 90.6% | 101% | 98.2% | 91.8% | 84.5% | 103% | 101% | 99.2% | 122% | 92% | 105% | 93.2% | 95.2% | 98% | 92% | 106% | 95.1% | 99.9% | 98.3% |
| CC(C)C[C@@H](C(=O)N[C@H](C(=O)OC1CCCC1)c1ccccc1)[C@H](O)C(=O)NO [Tosedostat] (100 nM) | 102% | 72.1% | 78.6% | 81.6% | 53% | 62.7% | 102% | 86.2% | 104% | 91% | 76.4% | 81.3% | 76% | 30.6% | 68.7% | 102% | -23.4% | 84% | 59.1% | 70% | 79.6% | 94.2% | 77.9% | 74.4% | 91.8% | 83.5% | 85.1% | 77.5% | 90.3% | 91.2% | 101% | 70.2% | 89% | 64.5% | 60.2% | 90.7% | 82.8% |
| COc1cc2c(NC3CCN(C(C)C)CC3)nc(N3CCC(F)(F)CC3)nc2cc1OCCCN1CCCC1 [UNC0642] (100 nM) | 100% | 101% | 101% | 89.8% | 98.1% | 105% | 97.5% | 65.3% | 99.2% | 72.7% | 80.7% | 90.2% | 99.4% | 107% | 63.9% | 108% | 131% | 101% | 103% | 96.5% | 92% | 96.5% | 97.9% | 98.5% | 89.9% | 96.1% | 93.7% | 90.3% | 99.6% | 98.6% | 94.8% | 95% | 97.9% | 108% | 105% | 96.2% | 96% |
| COCC[n+]1c2c(n(Cc3cnccn3)c1C)C(=O)c1ccccc1C2=O [YM155] (100 nM) | -29.1% | 88.9% | -16.3% | 18.9% | 21.2% | -130% | 92.8% | 75.2% | 71.7% | 22.8% | -5.41% | 106% | -8.31% | 0.07% | 19.2% | 87.8% | -69.5% | 70.4% | 5.9% | 36.9% | -0.1% | 0.53% | 2.89% | -0.47% | 20.4% | 1.4% | 9.07% | 0.92% | 1.96% | 62% | 6.51% | 1.55% | 1.98% | 27.8% | 0.08% | 26.2% | 4.6% |

— the supplement of paper PMC4862054
